Test results from ChEMBL document CHEMBL5665443, “Enzyme Inhibitor Single Concentration assay results for EUbOPEN Chemogenomics Library” (2024).

Key:
[1] = target: Methyl-CpG-binding domain protein 4 (Homo sapiens) (UniProt O95243); conditions: Hit No;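 note: MBD4 activity read as fluorescence at 594 nm from cleavage and release of a quenched duplex DNA oligonucleotide, with APE1 coupled to incise the strand and raise turnover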
Description: Inhibition of MBD4 by quantifying inhibition of MBD4-mediated cleavage and dissociation of quenched duplex DNA oligonucleotides, measured as fluorescence at 594 nm. To generate a functional strand incision and increase turn-over this assay is coupled to APE1.

[2] = target: T1, Single-strand selective monofunctional uracil DNA glycosylase (Homo sapiens) (UniProt Q53HV7); conditions: Hit No;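 note: enzymatic SMUG1 assay coupled with APE1, reading fluorescence at 594 nm released when a quenched double-stranded DNA oligonucleotide substrate is cleaved and separated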
T1 sequence (whole entry): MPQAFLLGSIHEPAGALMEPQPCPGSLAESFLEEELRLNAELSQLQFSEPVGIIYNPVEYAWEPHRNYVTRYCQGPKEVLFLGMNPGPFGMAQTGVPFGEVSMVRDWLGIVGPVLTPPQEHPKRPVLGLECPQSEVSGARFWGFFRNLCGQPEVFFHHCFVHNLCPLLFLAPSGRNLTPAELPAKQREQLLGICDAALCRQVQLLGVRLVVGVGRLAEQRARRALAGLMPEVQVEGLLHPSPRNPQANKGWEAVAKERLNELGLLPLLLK
Description: Inhibition of SMUG1 by quantifying inhibition of SMUG1-mediated cleavage and dissociation of quenched duplex DNA oligonucleotides, measured as fluorescence at 594 nm. To generate a functional strand incision and increase turn-over this assay is coupled to APE1.

[3] = target: Endonuclease 8-like 1 (Homo sapiens) (UniProt Q96FI4); conditions: Hit No;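 note: fluorescence at 594 nm from quenched duplex DNA oligonucleotides released by NEIL1 cleavage and strand separation, reported as reduction of this enzyme activity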
Endonuclease 8-like 1 (Homo sapiens), sequence (Q96FI4 whole entry): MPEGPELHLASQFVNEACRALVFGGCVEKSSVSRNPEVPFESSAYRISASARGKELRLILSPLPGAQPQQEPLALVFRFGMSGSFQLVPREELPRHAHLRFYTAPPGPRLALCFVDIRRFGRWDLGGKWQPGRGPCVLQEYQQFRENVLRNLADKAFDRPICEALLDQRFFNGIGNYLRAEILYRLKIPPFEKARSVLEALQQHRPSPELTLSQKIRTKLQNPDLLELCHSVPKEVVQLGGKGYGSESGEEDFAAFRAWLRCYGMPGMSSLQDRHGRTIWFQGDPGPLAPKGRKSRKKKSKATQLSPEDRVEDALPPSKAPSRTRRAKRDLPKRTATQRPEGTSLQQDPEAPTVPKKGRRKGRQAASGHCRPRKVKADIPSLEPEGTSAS
Description: Inhibition of NEIL1 by quantifying inhibition of NEIL1-mediated cleavage and dissociation of quenched duplex DNA oligonucleotides, measured as fluorescence at 594 nm.

[4] = target: T2, Adenine DNA glycosylase (Homo sapiens) (UniProt Q9UIF7);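 note: human MUTYH activity read as 594 nm fluorescence from cleavage and release of a quenched DNA duplex, coupled with APE1 for strand incision, lower signal meaning inhibition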
T2 sequence (whole entry): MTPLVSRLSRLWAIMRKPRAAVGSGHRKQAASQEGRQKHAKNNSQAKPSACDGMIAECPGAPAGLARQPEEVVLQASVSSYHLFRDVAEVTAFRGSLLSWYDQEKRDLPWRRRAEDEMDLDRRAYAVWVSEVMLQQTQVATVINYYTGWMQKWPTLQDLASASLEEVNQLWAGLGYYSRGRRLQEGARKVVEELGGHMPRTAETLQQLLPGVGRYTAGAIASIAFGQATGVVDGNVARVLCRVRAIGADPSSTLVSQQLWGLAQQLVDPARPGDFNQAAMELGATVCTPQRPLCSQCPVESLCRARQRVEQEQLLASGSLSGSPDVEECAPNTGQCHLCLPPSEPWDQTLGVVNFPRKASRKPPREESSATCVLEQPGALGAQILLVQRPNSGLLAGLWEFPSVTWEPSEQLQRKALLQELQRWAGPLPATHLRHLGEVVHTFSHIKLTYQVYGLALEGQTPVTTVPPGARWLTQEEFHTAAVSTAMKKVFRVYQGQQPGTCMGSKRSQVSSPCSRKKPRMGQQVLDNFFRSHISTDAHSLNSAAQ
Description: Inhibition of MUTYH by quantifying inhibition of MUTYH-mediated cleavage and dissociation of quenched duplex DNA oligonucleotides, measured as fluorescence at 594 nm. To generate a functional strand incision and increase turn-over this assay is coupled to APE1.

[5] = target: Uracil-DNA glycosylase (Homo sapiens) (UniProt P13051); conditions: Hit No;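 note: UNG excision on a quenched double-stranded DNA oligo probe, with APE1 added for strand incision and turnover, read as fluorescence at 594 nm as strands separate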
Uracil-DNA glycosylase (Homo sapiens), sequence (P13051 whole entry): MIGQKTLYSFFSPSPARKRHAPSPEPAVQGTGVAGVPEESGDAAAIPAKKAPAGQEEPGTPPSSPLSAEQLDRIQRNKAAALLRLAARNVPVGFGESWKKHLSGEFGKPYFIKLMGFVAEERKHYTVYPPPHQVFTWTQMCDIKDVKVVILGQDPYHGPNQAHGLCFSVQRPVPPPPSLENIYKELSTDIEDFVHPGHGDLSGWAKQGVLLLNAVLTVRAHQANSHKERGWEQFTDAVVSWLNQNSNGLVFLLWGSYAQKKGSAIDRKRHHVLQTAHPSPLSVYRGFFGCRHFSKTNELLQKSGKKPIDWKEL
Description: Inhibition of UNG by quantifying inhibition of UNG-mediated cleavage and dissociation of quenched duplex DNA oligonucleotides, measured as fluorescence at 594 nm. To generate a functional strand incision and increase turn-over this assay is coupled to APE1.

[6] = target: G/T mismatch-specific thymine DNA glycosylase (Homo sapiens) (UniProt Q13569); conditions: Hit No;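 note: human TDG cleavage of quenched duplex DNA oligonucleotides coupled to APE1, strand release read as fluorescence at 594 nm, inhibition of TDG activity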
G/T mismatch-specific thymine DNA glycosylase (Homo sapiens), sequence (Q13569 whole entry): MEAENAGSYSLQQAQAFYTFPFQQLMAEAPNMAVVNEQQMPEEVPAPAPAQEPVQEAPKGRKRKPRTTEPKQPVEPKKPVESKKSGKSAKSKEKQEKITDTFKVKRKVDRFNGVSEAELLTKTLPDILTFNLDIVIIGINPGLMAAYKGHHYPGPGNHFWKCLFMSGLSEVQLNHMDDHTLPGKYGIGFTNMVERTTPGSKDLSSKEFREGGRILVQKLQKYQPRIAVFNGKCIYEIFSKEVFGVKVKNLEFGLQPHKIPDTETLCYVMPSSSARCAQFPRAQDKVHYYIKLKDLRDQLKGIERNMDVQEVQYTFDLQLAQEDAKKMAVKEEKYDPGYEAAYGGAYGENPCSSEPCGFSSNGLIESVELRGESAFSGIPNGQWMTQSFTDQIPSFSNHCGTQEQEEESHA
Description: Inhibition of TDG by quantifying inhibition of TDG-mediated cleavage and dissociation of quenched duplex DNA oligonucleotides, measured as fluorescence at 594 nm. To generate a functional strand incision and increase turn-over this assay is coupled to APE1.

[7] = target: N-glycosylase/DNA lyase (Homo sapiens) (UniProt O15527);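 note: OGG1 cleavage of a quenched duplex DNA oligonucleotide, coupled to APE1 for strand incision, read as fluorescence at 594 nm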
N-glycosylase/DNA lyase (Homo sapiens), sequence (O15527 whole entry): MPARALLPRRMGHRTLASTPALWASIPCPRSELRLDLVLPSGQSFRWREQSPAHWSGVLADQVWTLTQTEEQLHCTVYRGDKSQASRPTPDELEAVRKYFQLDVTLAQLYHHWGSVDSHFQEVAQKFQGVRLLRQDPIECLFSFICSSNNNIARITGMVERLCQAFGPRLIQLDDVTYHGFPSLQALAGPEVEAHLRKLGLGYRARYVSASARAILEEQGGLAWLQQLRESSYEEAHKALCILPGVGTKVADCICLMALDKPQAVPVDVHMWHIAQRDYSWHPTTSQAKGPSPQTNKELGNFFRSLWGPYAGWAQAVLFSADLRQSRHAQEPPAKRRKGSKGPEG
Description: Inhibition of OGG1 by quantifying inhibition of OGG1-mediated cleavage and dissociation of quenched duplex DNA oligonucleotides, measured as fluorescence at 594 nm. To generate a functional strand incision and increase turn-over this assay is coupled to APE1.

[8] = target: T3, Endonuclease III-like protein 1 (Homo sapiens) (UniProt P78549);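 note: enzyme assay tracking NTHL1 cutting and release of a quenched double-stranded DNA oligo substrate, read as fluorescence at 594 nm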
T3 sequence (whole entry): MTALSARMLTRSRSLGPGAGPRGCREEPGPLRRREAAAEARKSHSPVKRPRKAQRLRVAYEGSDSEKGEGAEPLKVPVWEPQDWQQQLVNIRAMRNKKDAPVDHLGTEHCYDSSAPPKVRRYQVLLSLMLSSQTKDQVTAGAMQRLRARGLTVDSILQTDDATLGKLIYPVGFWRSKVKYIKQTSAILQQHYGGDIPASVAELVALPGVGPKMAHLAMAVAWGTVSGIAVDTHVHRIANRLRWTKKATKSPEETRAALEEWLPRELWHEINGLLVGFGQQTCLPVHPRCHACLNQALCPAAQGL
Description: Inhibition of NTHL1 by quantifying inhibition of NTHL1-mediated cleavage and dissociation of quenched duplex DNA oligonucleotides, measured as fluorescence at 594 nm.

[9] = target: T4, Endonuclease 8-like 2 (Homo sapiens) (UniProt Q969S2);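 note: fluorescence at 594 nm reports NEIL2 cutting and release of a quenched double-stranded DNA oligo substrate, reduced signal read as inhibition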
T4 sequence (whole entry): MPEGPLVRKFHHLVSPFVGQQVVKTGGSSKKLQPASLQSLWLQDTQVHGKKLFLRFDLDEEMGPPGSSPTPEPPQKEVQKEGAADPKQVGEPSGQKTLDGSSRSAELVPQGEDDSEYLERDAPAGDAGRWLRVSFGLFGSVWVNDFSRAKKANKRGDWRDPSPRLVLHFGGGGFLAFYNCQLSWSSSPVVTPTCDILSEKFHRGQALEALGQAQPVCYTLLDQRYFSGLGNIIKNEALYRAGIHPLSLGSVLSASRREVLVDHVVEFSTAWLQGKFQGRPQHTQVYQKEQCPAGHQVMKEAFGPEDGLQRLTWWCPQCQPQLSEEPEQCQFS
Description: Inhibition of NEIL2 by quantifying inhibition of NEIL2-mediated cleavage and dissociation of quenched duplex DNA oligonucleotides, measured as fluorescence at 594 nm.

[10] = Compound Concentration 10.0 uM, Hit No
[11] = Compound Concentration 1.0 uM, Hit No
[12] = Compound Concentration 1.0 uM, Hit Yes
[13] = Compound Concentration 10.0 uM, Hit Yes

Methyl-CpG-binding domain protein 4 (Homo sapiens), sequence (O95243 whole entry, the tested form may be a part): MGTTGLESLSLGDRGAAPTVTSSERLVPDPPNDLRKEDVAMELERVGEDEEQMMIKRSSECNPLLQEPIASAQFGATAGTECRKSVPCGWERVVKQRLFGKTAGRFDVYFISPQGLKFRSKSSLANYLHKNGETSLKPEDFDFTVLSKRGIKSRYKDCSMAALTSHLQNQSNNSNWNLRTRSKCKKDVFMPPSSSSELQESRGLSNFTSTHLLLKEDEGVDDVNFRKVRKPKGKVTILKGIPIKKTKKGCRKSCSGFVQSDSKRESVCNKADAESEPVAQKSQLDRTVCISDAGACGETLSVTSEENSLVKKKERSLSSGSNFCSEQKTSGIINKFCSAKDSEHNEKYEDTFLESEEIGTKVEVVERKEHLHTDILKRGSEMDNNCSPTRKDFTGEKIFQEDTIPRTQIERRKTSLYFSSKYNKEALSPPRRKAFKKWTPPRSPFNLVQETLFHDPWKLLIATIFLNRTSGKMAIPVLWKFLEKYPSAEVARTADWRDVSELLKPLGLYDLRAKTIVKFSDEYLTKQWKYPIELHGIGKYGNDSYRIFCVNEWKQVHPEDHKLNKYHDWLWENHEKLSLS

SMILES | inhibition ([1]; Compound Concentration 10.0 uM) | inhibition ([2]; Compound Concentration 10.0 uM) | inhibition ([3]; Compound Concentration 10.0 uM) | inhibition [4, 10] | inhibition ([5]; Compound Concentration 10.0 uM) | inhibition ([6]; Compound Concentration 10.0 uM) | inhibition [7, 10] | inhibition [8, 10] | inhibition [9, 10] | further results
C=C(C)[C@H]1CN[C@H](C(=O)O)[C@H]1CC(=O)O | 2.41% | -0.636% | -4.88% | 8.87% | -5.09% | -2.38% | -6.14% | -1.08% | -3.66% | –
CC(C)S(=O)(=O)c1ccc2nccc(Nc3ccc4scnc4c3)c2c1 | 9.41% | 32.3% | -7.92% | 18.3% | 8% | 49.5% | 12% | 9.85% | 1.58% | –
CC[C@H](C)C(=O)O[C@H]1C[C@@H](C)C=C2C=C[C@H](C)[C@H](CC[C@@H]3C[C@@H](O)CC(=O)O3)[C@H]21 | 71.5% | 15.8% | -4.68% | 12.1% | 8.04% | 49.6% | 11.4% | 5.94% | 4.61% | –
N#Cc1cnc(Nc2cc(NC[C@H]3CNCCO3)c(C(F)(F)F)cn2)cn1 | – | – | – | – | – | – | – | – | – | inhibition ([1]; Compound Concentration 1.0 uM): 13.8%; inhibition ([2]; Compound Concentration 1.0 uM): 34.2%; inhibition ([3]; Compound Concentration 1.0 uM): -5.15%; inhibition [4, 11]: 2.62%; inhibition ([5]; Compound Concentration 1.0 uM): 6.29%; inhibition ([6]; Compound Concentration 1.0 uM): 53.2%; inhibition [7, 11]: 7.47%; inhibition [8, 11]: -0.61%; inhibition [9, 11]: -5.15%
Cc1c(N2CCNCC2)nc2ccc(Br)cc2c1C(=O)NC[C@H](CCC(=O)O)c1ccccc1Cl | 54.3% | 15% | -1.8% | 16.7% | 3.28% | 41.3% | -2.82% | -7.86% | 0.276% | –
CNCc1ccccc1-c1csc([C@H](C)Nc2nc(C)nc3cc(OC)c(OC)cc23)c1 | – | – | – | – | – | – | – | – | – | inhibition ([1]; Compound Concentration 1.0 uM): 58.7%; inhibition ([2]; Compound Concentration 1.0 uM): 19.4%; inhibition ([3]; Compound Concentration 1.0 uM): -4.23%; inhibition [4, 12]: 36.2%; inhibition ([5]; Compound Concentration 1.0 uM): 6.69%; inhibition ([6]; Compound Concentration 1.0 uM): 97.8%; inhibition [7, 11]: 6.33%; inhibition [8, 11]: 2.66%; inhibition [9, 12]: 26.3%
Cc1ccc(-c2cnc([C@@]3(O)CC[C@H](C(=O)O)C(C)(C)C3)s2)cc1Nc1cccc(C(F)(F)F)n1 | 60.9% | 11.6% | -8.92% | 13.4% | 2.77% | 58.3% | 5.44% | -1.95% | – | inhibition ([1]; Compound Concentration 1.0 uM): 1.64%; inhibition ([2]; Compound Concentration 1.0 uM): 6.55%; inhibition ([3]; Compound Concentration 1.0 uM): -1.05%; inhibition ([5]; Compound Concentration 1.0 uM): -2.23%; inhibition ([6]; Compound Concentration 1.0 uM): 36.9%; inhibition [8, 11]: -6.89%; inhibition [9, 11]: 1.58%
C=C1/C(=C\C=C2/CCC[C@]3(C)[C@@H]([C@H](C)CCCC(C)(C)O)CC[C@@H]23)C[C@@H](O)C[C@@H]1O | 57% | 0.349% | -6.8% | -4.04% | -0.617% | 75.3% | 10.5% | -8.52% | -1.25% | –
CO[C@H]1/C=C/O[C@@]2(C)Oc3c(C)c(O)c4c(O)c(c(/C=N/N5CCN(C)CC5)c(O)c4c3C2=O)NC(=O)/C(C)=C\C=C\[C@H](C)[C@H](O)[C@@H](C)[C@@H](O)[C@@H](C)[C@H](OC(C)=O)[C@@H]1C | 74.6% | 26.1% | -4.08% | 34.5% | 20% | 64% | 23.7% | – | -0.744% | inhibition [8, 13]: 27.6%
Cc1cccc(-c2cnc3occ(-c4ccc(C(=O)O)c(C5CCCC5)c4)c3c2)c1 | 33% | 18.9% | 6.08% | 15.7% | -0.203% | 36.3% | 66.5% | 4.27% | -2.46% | –
CC(C)c1ccc(CC(=O)N2CCC[C@@H](c3cccc(OC(C)(C)C(=O)O)c3)C2)cc1 | 54.2% | 12.4% | -5.29% | -0.105% | 3.87% | 47.9% | -4.05% | 8.57% | 4.61% | –
CC(C)c1onc(-c2c(Cl)cccc2Cl)c1COc1ccc(/C=C/c2cccc(C(=O)O)c2)c(Cl)c1 | 58.8% | 19.5% | -5.29% | 0.66% | 4.8% | 100% | – | 12.5% | -6.36% | inhibition [7, 13]: 103%
O=C(N[C@@H]1C2CCN(CC2)[C@H]1Cc1cccnc1)c1cc2ccccc2o1 | -7.25% | -7.47% | 5.2% | -1.82% | -1.31% | -0.849% | -7.23% | 27.8% | 1.94% | –
c1ccc(C2CCN(c3cnc4c(N5CCOCC5)nccn34)CC2)cc1 | 75% | 23% | -3.17% | 15.4% | 7.59% | 55.2% | 16.2% | -2.6% | -2.53% | –
CN(C(=O)c1cnn2cccnc12)c1cc2c(cc1N1CCOCC1)C(=O)N(C[C@@H](F)C(C)(C)O)C2 | 23.6% | 9.25% | 6.13% | 2.33% | 0.621% | 39.8% | -1.31% | -9.94% | -1.57% | –
COc1cc(-c2cn[nH]c2)ccc1C(=O)Nc1ccc2c(c1)CCNCC2 | 13.6% | 20.2% | -5.41% | -0.48% | 2.84% | 37.4% | 2.14% | -8.28% | 3.2% | –
Cc1cc(-n2nc(Cc3cc(F)cc(C(F)(F)F)c3)nc2C)ccc1C(N)=O | 59.6% | 18.8% | -6.95% | 0.715% | 2.38% | 97.3% | -5.77% | 7.26% | -0.234% | –
COc1ccc2c(c1)O[C@H](c1ccc(OC)c(OC)c1)C[C@@H]2NC(=O)C1(c2ccc3c(c2)OC(F)(F)O3)CC1 | 67.5% | 9.42% | -6.95% | 5.63% | 3.82% | 47.2% | 6.08% | 3.97% | -3.29% | –
O=C(NOCC1CC1)c1ccc(F)c(F)c1Nc1ccc(I)cc1Cl | – | – | – | – | – | – | – | – | – | inhibition ([1]; Compound Concentration 1.0 uM): 41.9%; inhibition ([2]; Compound Concentration 1.0 uM): 8.89%; inhibition ([3]; Compound Concentration 1.0 uM): -9.77%; inhibition [4, 11]: 4.86%; inhibition ([5]; Compound Concentration 1.0 uM): -3%; inhibition ([6]; Compound Concentration 1.0 uM): 57%; inhibition [7, 11]: 1.82%; inhibition [8, 11]: 15.4%; inhibition [9, 11]: -7.84%
CCN(CC)CCCCNc1ncc2cc(-c3cc(OC)cc(OC)c3)c(NC(=O)NC(C)(C)C)nc2n1 | – | – | – | – | – | – | – | – | – | inhibition ([1]; Compound Concentration 1.0 uM): 12%; inhibition ([2]; Compound Concentration 1.0 uM): 21.2%; inhibition ([3]; Compound Concentration 1.0 uM): 6.87%; inhibition [4, 11]: 14.1%; inhibition ([5]; Compound Concentration 1.0 uM): 4.12%; inhibition ([6]; Compound Concentration 1.0 uM): 36.3%; inhibition [7, 11]: -1.83%; inhibition [8, 11]: -4.79%; inhibition [9, 11]: 3.2%
